In patent US20210114029A1, “DEVICES, SYSTEMS, AND METHODS FOR HIGH THROUGHPUT SINGLE CELL ANALYSIS” (Duke University, priority 2017, published 2021):

Legend:
K562 cells = experiment: Growth of K562 single cell colonies in microfluidic trap array in the presence of Imatinib; format: cell-based; conditions: K562 cells grown with 0.1 μM, 0.3 μM, 0.5 μM Imatinib or control; FIG. 20
Description: (§1) Cells were introduced to the array and transferred to the interior chambers with a gentle trap and transfer technique that is similar to previously reported methods (Dura, et al. (2014), “Deformability-based microfluidic cell pairing and fusion”, Lab. Chip 14:2783). Specifically, we first captured cells at the entrance of the traps, and next transferred the cells into the chambers with a brief pressure burst, causing the cells to squeeze through the narrow constrictions and move into the interior chambers. The widths of the constrictions were adjusted in the range of 3-6 microns, depending on the cell type the device was designed to capture. […] Flow control was achieved by adjusting negative pressure at the outlet, which allowed cells to be pipetted directly in the inlet reservoir with minimal losses from dead volume. Additionally, this approach allowed us to wash the cells from the inlet reservoir once the array was fully populated. […]
(§2) Cells were imaged twice per day and immediately returned to the incubator after each imaging cycle, requiring around 5-10 minutes for each chip. After 7 days, the imaging dataset was analyzed by custom computer vision software written in Python using a pre-trained Mask_RCNN image segmentation model. […]

MOLM 13 cells = experiment: Growth of MOLM 13 cells in microfluidic chambers in the presence of Quizartinib; format: cell-based; conditions: drug vs control medium, images FIG. 22A/22B
Description: as §1, §2

| Compound | growth rate distribution of colonies (K562 cells) | outgrowth of clones in the presence of the drug (MOLM 13 cells) |
| --- | --- | --- |
| Cc1ccc(NC(=O)c2ccc(CN3CCN(C)CC3)cc2)cc1Nc1nccc(-c2cccnc2)n1 [Imatinib] | decreased growth rate with increasing drug concentration |  |
| CC(C)(C)c1cc(NC(=O)Nc2ccc(-c3cn4c(n3)sc3cc(OCCN5CCOCC5)ccc34)cc2)no1 [Quizartinib] |  | A single clone is observed to grow out in the presence of the drug |
